Reference: patent US9440950B2, “Arginine methyltransferase inhibitors and uses thereof” (Epizyme, Inc., priority 2013, dated 2016)

target: T1, Human CARM1 (PRMT4) (Homo sapiens, UniProt Q86X55); experiment: CARM1 Biochemical Assay; conditions: peptide substrate, 3H-SAM Flashplate assay
T1 construct: Flag-CARM1-His; made in house; host or cells: HEK 293F cells (BacMam virus, pFastBacMam)
T1 sequence (Q86X55 1-585 isoform Q86X55-1): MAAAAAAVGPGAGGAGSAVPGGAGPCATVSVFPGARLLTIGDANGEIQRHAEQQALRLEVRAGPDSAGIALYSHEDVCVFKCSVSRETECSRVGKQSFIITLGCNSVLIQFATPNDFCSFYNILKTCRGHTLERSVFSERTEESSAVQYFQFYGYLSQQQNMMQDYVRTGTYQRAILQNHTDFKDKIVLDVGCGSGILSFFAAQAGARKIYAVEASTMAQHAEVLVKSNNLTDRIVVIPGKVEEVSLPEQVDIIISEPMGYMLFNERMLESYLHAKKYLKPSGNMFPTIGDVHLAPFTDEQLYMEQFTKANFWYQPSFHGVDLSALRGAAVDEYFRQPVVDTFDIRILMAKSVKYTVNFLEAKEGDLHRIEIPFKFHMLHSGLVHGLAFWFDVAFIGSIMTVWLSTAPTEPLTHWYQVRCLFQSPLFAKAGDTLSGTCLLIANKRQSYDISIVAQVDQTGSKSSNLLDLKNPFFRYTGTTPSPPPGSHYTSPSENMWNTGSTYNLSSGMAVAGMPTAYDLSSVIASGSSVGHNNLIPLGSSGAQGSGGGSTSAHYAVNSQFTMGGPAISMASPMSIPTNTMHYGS
From the text: S-adenosylmethionine (SAM), S-adenosylhomocysteine (SAH), bicine, Tween20, dimethylsulfoxide (DMSO), bovine skin gelatin (BSG), sodium butyrate and Tris(2-carboxyethyl)phosphine hydrochloride solution (TCEP) were purchased from Sigma-Aldrich at the highest level of purity possible. ^3H-SAM was purchase from American Radiolabeled Chemicals with a specific activity of 80 Ci/mmol. 384-well streptavidin Flashplates were purchased from PerkinElmer.
Peptide representative of human histone H3 residues 16-30 was synthesized with an N-terminal linker-affinity tag motif and a C-terminal amide cap by 21st Century Biochemicals. The peptide was purified by high-performance liquid chromatography (HPLC) to greater than 95% purity and confirmed by liquid chromatography mass spectrometry (LC-MS). The sequence was Biot-Ahx-[…]-amide and contained a monomethylated arginine at position 26 (SEQ ID NO.:14).
Human CARM1 (PRMT4) (NM_199141.1) transcript clone was amplified from an HEK 293 cDNA library, incorporating a flanking 5′ sequence encoding a FLAG tag ([…]) (SEQ ID NO.:6) fused directly to Ala 2 of CARM1 and 3′ sequence encoding a hexa His sequence ([…]) (SEQ ID NO.:15) fused directly to Ser 608. The gene sequence encoding isoform1 containing a deletion of amino acids 539-561 was amplified subsequently and subcloned into pFastBacMam (Viva Biotech).
Recombinant baculovirus were generated according to Bac-to-Bac kit instructions (Life Technologies). […] Infections were carried out at 37° C. for 48 hours, harvested by centrifugation, and stored at −80° C. for purification.
Column was washed with 500 mM NaCl in buffer A and Flag-CARM1-His was eluted with 200 ug/ml FLAG peptide in buffer A. Pooled fractions were dialyzed in 20 mM Tris, 150 mM NaCl, 5% glycerol and 1 mM DTT, pH 7.8. The purity of recovered protein was 94.
General Procedure for CARM1 Enzyme Assays on Peptide Substrates.
The assays were all performed in a buffer consisting of 20 mM Bicine (pH=7.6), 1 mM TCEP, 0.005% BSG, and 0.002% Tween 20, prepared on the day of use. Compounds in 100% DMSO (1 ul) were spotted into a polypropylene 384-well V-bottom plates (Greiner) using a Platemate Plus outfitted with a 384-channel head (Thermo Scientific). DMSO (1 ul) was added to Columns 11, 12, 23, 24, rows A-H for the maximum signal control and 1 ul of SAH, a known product and inhibitor of CARM1, was added to columns 11, 12, 23, 24, rows I-P for the minimum signal control. A cocktail (40 ul) containing the CARM1 enzyme was added by Multidrop Combi (Thermo-Fisher). The compounds were allowed to incubate with CARM1 for 30 min at room temperature, then a cocktail (10 ul) containing ^3H-SAM and peptide was added to initiate the reaction (final volume=51 ul). The final concentrations of the components were as follows: CARM1 was 0.25 nM, ^3H-SAM was 30 nM, peptide was 250 nM, SAH in the minimum signal control wells was 1 mM, and the DMSO concentration was 2%. The assays were stopped by the addition of non-radiolabeled SAM (10 ul) to a final concentration of 300 uM, which dilutes the ^3H-SAM to a level where its incorporation into the peptide substrate is no longer detectable. 50 ul of the reaction in the 384-well polypropylene plate was then transferred to a 384-well Flashplate and the biotinylated peptides were allowed to bind to the streptavidin surface for at least 1 hour before being washed once with 0.1% Tween20 in a Biotek ELx405 plate washer. The plates were then read in a PerkinElmer TopCount plate reader to measure the quantity of ^3H-labeled peptide bound to the Flashplate surface, measured as disintegrations per minute (dpm) or alternatively, referred to as counts per minute (cpm).
Where dpm=disintegrations per minute, cmpd=signal in assay well, and min and max are the respective minimum and maximum signal controls.
Where top and bottom are the normally allowed to float, but may be fixed at 100 or 0 respectively in a 3-parameter fit. […]

Question: `CNCCN(C)Cc1c[nH]nc1-c1cccnc1` [Compound 1] was tested. Which IC50 did it give?
Answer: The IC50 was 1.01 to 3 µM.

Question: How did the IC50 turn out when `CNCCN(C)Cc1c[nH]nc1-c1ccc(O)nc1` [Compound 2] was run?
Answer: Its IC50 is at least 10 µM.

Question: `CNCCN(C)Cc1c[nH]nc1-c1ccc(N)nc1` [Compound 3] was tested. Which IC50 did it give?
Answer: Its IC50 is 3.01 to 10 µM.

Question: `CN(CCN)Cc1c[nH]nc1-c1cncc(S(C)(=O)=O)c1` [Compound 4] was tested. Which IC50 did it give?
Answer: The IC50 was at least 10 µM.

Question: Which IC50 does the source give for `COc1ccc(-c2n[nH]cc2CN(C)CCN)cn1` [Compound 5] here?
Answer: Its IC50 is 3.01 to 10 µM.

Question: `Cc1cncc(-c2n[nH]cc2CN(C)CCN)c1` [Compound 6] was tested. Which IC50 did it give?
Answer: The IC50 was at least 10 µM.

Question: `CN(CCN)Cc1c[nH]nc1-c1cncc(F)c1` [Compound 7] was tested. Which IC50 did it give?
Answer: The IC50 was 1.01 to 3 µM.

Question: With `CN(CCN)Cc1c[nH]nc1-c1cccnc1` [Compound 8] as the compound, how does the IC50 read?
Answer: Its IC50 is 3.01 to 10 µM.

Question: For `CN(CCN)Cc1c[nH]nc1-c1ccncc1` [Compound 9], which IC50 is on record?
Answer: Its IC50 is 3.01 to 10 µM.

Question: How did the IC50 turn out when `Cc1cc(-c2n[nH]cc2CN(C)CCN)cnc1Cl` [Compound 10] was run?
Answer: The IC50 was 0.101 to 1 µM.
